Measured values taken from US12187742B2 (XRAD Therapeutics, Inc., priority 2018, dated 2025).
pIC50: −log10 of the molar value. Where a name gives a salt, the structure may show the parent alone.

Tests used:
[1] = target: ATM (Homo sapiens (Human), UniProt Q13315); assay: ATM in Cell Western Assay (pKAP1 in etoposide-treated MCF-7 cells); format: cell-based
Procedure, shortened: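 After paraformaldehyde fixation and Triton X-100 permeabilization, immunostained plates were read by infrared scanning (ODYSSEY CLx). Compound was given as 10 doses, 3-fold dilutions from a 1 μM final top concentration.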

[2] = target: DNA-PK (Homo sapiens (Human), UniProt P78527); assay: DNA-PK Enzyme-Linked Immunosorbent Assay (phosphorylation of GST-p53 (1-101) peptide); format: biochemical; details: ELISA
Procedure, shortened: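 Inhibition measured by 450 nm absorbance after HRP/TMB detection of phospho-Ser15 on immobilized GST-p53 (1-101). The kinase reaction used 0.1 μg/mL DNA-PK and 20 μM ATP, 1 h at 25 °C. Ten 3-fold compound dilutions, top final concentration 100 nM.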

[3] = MCF-7 cells, etoposide 100 μM, 1 hr, pKAP1 readout
[4] = pKAP1 in etoposide-treated MCF-7 cells

ATM, sequence (Q13315 whole entry): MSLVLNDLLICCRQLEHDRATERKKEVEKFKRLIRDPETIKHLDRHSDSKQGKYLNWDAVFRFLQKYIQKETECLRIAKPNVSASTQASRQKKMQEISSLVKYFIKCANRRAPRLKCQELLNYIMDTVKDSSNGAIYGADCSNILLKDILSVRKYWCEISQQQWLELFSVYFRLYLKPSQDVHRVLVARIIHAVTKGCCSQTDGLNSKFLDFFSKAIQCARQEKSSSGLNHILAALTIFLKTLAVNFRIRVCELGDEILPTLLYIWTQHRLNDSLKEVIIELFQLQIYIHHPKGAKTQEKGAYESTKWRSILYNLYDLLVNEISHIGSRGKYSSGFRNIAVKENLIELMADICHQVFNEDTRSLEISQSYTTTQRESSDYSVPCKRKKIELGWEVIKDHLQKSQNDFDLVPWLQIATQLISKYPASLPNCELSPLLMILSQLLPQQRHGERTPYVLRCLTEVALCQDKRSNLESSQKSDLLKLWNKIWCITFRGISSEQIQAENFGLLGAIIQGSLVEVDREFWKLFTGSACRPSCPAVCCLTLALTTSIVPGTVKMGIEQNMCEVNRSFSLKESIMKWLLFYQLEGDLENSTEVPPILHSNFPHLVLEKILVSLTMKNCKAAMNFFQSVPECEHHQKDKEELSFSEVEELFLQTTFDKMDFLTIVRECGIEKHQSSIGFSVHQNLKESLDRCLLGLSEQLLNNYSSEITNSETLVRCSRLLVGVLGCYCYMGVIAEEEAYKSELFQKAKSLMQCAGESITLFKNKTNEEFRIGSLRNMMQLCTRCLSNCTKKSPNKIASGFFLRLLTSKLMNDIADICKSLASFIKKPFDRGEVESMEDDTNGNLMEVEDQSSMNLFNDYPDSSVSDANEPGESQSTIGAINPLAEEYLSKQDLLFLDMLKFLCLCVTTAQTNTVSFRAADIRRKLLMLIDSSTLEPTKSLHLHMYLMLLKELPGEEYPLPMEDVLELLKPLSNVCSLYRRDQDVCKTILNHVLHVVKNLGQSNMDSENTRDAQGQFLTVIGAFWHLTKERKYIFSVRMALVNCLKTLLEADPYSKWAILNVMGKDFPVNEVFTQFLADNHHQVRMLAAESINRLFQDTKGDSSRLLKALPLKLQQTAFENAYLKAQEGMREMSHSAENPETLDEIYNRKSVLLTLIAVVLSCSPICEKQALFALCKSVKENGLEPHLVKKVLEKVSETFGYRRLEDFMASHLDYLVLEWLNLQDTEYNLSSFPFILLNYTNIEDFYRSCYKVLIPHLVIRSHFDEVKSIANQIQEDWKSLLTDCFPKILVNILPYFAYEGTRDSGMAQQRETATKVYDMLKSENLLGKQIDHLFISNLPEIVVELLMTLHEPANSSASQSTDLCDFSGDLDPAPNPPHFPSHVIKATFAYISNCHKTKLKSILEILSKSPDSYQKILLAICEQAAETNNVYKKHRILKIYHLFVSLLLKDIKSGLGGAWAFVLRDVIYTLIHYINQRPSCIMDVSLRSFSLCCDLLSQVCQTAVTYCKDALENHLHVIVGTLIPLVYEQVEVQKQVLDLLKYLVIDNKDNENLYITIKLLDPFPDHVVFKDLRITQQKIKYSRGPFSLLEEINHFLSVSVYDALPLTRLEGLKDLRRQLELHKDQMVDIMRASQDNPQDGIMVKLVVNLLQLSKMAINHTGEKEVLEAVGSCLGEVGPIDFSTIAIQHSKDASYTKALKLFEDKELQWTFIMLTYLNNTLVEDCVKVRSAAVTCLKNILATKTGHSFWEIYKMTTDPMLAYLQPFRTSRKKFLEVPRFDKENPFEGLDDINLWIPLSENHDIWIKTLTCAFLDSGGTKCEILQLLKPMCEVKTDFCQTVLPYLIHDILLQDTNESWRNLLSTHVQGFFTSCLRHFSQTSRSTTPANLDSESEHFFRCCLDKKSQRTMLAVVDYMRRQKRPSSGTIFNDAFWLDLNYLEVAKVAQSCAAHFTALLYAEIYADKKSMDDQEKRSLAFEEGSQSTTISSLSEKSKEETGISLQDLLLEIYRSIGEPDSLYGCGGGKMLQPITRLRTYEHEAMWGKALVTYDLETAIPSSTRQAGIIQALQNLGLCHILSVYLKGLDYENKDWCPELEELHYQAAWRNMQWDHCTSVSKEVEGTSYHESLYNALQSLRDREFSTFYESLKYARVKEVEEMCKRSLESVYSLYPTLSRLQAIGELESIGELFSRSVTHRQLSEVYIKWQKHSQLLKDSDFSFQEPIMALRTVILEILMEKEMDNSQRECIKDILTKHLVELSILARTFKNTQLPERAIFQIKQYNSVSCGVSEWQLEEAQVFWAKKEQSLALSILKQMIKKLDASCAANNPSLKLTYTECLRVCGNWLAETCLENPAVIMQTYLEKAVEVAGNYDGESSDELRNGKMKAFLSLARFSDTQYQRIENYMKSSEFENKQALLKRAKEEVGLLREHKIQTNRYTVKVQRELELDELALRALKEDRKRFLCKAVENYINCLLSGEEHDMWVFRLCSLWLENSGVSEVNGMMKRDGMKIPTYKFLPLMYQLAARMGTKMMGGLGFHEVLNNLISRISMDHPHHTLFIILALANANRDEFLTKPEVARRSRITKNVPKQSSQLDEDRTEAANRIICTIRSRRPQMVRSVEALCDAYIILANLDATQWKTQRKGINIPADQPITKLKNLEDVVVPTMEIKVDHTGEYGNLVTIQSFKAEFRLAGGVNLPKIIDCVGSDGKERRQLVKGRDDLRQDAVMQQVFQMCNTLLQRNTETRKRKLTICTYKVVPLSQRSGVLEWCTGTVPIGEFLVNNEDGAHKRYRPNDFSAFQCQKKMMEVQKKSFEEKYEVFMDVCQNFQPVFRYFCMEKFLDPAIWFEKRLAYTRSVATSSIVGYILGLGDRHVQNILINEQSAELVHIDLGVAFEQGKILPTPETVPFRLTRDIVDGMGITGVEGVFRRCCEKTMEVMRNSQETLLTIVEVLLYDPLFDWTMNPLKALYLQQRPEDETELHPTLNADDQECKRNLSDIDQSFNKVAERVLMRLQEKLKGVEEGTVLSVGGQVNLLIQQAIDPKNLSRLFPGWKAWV

Row | Compound | pIC50 [1, 3] | pIC50 ([2]; ATP 20 μM) | pIC50 [1, 4] | pIC50 ([2]; 20 μM ATP)
1 | CN(C)CCCOc1ncc(-c2ccc3ncc4c(c3c2F)C2(CCC2)C(=O)N4C)cc1NS(C)(=O)=O [Example 268, N-(2-(3-(Dimethylamino)propoxy)-5-(9′-fluoro-3′-methyl-2′-oxo-2′,3′-dihydrospiro[cyclobutane-1,1′-pyrrolo[2,3-c]quinolin]-8′-yl)pyridin-3-yl)methanesulfonamide] | 7.00 to 9.00 | 7.00 to 9.00 |  | 
2 | CN(C)CCCOc1ncc(-c2ccc3ncc4c(c3c2)C2(CC2)C(=O)N4C)cc1NS(=O)(=O)C1COC1 [Example 76] | 7.00 to 9.00 | 9.00 to 9.30 |  | 
3 | COc1ncc(-c2ccc3ncc4c(c3c2)C2(CC2)C(=O)N4)cc1NS(=O)(=O)c1ccccc1 [Example 19, N-(2-Methoxy-5-(2′-oxo-2′,3′-dihydrospiro [cyclopropane-1,1′-pyrrolo[2,3-c]quinolin]-8′-yl)pyridin-3-yl) benzenesulfonamide] | 7.00 to 9.00 | > 9.30 |  | 
4 | CCS(=O)(=O)Nc1cc(-c2ccc3ncc4c(c3c2)C2(CC2)C(=O)N4C)cnc1OCCCN(C)C [Example 61, N-(2-(3-(Dimethylamino)propoxy)-5-(3′-methyl-2′-oxo-2′,3′-dihydrospiro [cyclopropane-1,1′-pyrrolo[2,3-c]quinolin]-8′-yl)pyridin-3-ylethanesulfonamide hydrochloride] | 7.00 to 9.00 | 7.00 to 9.00 |  | 
5 | CN(C)CCCOc1ncc(-c2ccc3ncc4c(c3c2)C2(CCC2)C(=O)N4C)cc1NS(=O)(=O)c1cc(F)cc(Cl)c1 [Example 171, 3-Chloro-N-(2-(3-(dimethylamino)propoxy)-5-(3′-methyl-2′-oxo-2′,3′-dihydrospiro[cyclobutane-1,1′-pyrrolo[2,3-c]quinolin]-8′-yl)pyridin-3-yl)-5-fluorobenzenesulfonamide hydrochloride] | 7.00 to 9.00 | 9.00 to 9.30 |  | 
6 | Cc1ccc(S(=O)(=O)Nc2cc(-c3ccc4ncc5c(c4c3)C3(CCC3)C(=O)N5C)cnc2N2CCC(N(C)C)CC2)cc1 [Example 178, N-(2-(4-(Dimethylamino)piperidin-1-yl)-5-(3′-methyl-2′-oxo-2′,3′-dihydrospiro[cyclobutane-1,1′-pyrrolo[2,3-c]quinolin]-8′-yl)pyridin-3-yl)-4-methylbenzenesulfonamide 2,2,2-trifluoroacetate] | 7.00 to 9.00 | > 9.30 |  | 
7 | CN1C(=O)C2(CC2)c2c1cnc1ccc(-c3cnc(OCCCN4CCCCC4)c(NS(=O)(=O)C4CC4)c3)cc21 [Example 68, N-(5-(3′-Methyl-2′-oxo-2′,3′-dibydrospiro[cyclopropane-1,1′-pyrrolo[2,3-c]quinolin]-8′-yl)-2-(3-(piperidin-1-yl)propoxy)pyridin-3-yl)cyclopropanesulfonamide] | 7.00 to 9.00 | > 9.30 |  | 
8 | CC(C)NCCOc1ncc(-c2cc3c4c(cnc3cc2F)N(C)C(=O)C42CN(c3ccc(-c4ccccc4)cc3)C2)cc1NS(C)(=O)=O [Example 543, N-(5-(1-([1,1′-Biphenyl]-4-yl)-7′-fluoro-3′-methyl-2′-oxo-2′,3′-dihydrospiro[azetidine-3,1′-pyrrolo[2,3-c]quinolin]-8′-yl)-2-(2-(isopropylamino)ethoxy)pyridin-3-yl)methanesulfonamide] |  |  | 7.00 to 9.00 | 7.00 to 9.00
9 | CN1C(=O)C2(CCC2)c2c1cnc1ccc(-c3cnc(OCCCN4CCCCC4)c(NS(=O)(=O)N4CCNCC4)c3)cc21 [Example 202, N-(5-(3′-Methyl-2′-oxo-2′,3′-dihydrospiro[cyclobutane-1,1′-pyrrolo[2,3-c]quinolin]-8′-yl)-2-(3-(piperidin-1-yl)propoxy)pyridin-3-yl)piperazine-1-sulfonamide] | 9.00 to 9.30 | > 9.30 |  | 
10 | CN(C)CCOc1ncc(-c2ccc3ncc4c(c3c2)C2(CCCC2)C(=O)N4C)cc1NS(=O)(=O)c1ccccc1 [Example 6, N-(2-(2-(Dimethylamino)ethoxy)-5-(3′-methyl-2′-oxo-2′,3′-dihydrospiro[cyclopentane-1,1′-pyrrolo[2,3-c]quinolin]-8′-yl)pyridin-3-yl)benzenesulfonamide] | 7.00 to 9.00 | 9.00 to 9.30 |  | 
11 | COc1cc2ncc3c(c2cc1-c1cnc(OCCCN(C)C)c(NS(=O)(=O)c2ccccc2)c1)C1(CC1)C(=O)N3C [Example 82, N-(2-(3-(Dimethylamino)propoxy)-5-(7-methoxy-3′-methyl-2′-oxo-2′,3′-dihydrospiro[cyclopropane-1,1′-pyrrolo[2,3-c]quinolin]-8′-yl)pyridin-3-yl) benzenesulfonamide] | 9.00 to 9.30 | 7.00 to 9.00 |  | 
12 | CN1C(=O)C2(CCC2)c2c1cnc1ccc(-c3cnc(OCCCN4CCCCC4)c(NS(=O)(=O)C4CC4)c3)cc21 [Example 197, N-(5-(3-Methyl-2′-oxo-2′,3′-dihydrospiro[cyclobulane-1,1′-pyrrolo[2,3-c]quinolin]-8′-yl)-2-(3-(piperidin-1-yl)propoxy)pyridin-3-yl)cyclopropanesulfonamide hydrochloride] | 7.00 to 9.00 | 9.00 to 9.30 |  | 
13 | Cc1ccc(S(=O)(=O)Nc2cc(-c3ccc4ncc5c(c4c3)C3(CC3)C(=O)N5C)cnc2OCCCN(C)C)cc1 [Example 100, N-(2-(3-(Dimethylamino)propoxy)-5-(3′-methyl-2′-oxo-2′,3′-dihydrospiro [cyclopropane-1,1′-pyrrolo[2,3-c]quinolin]-8′-yl)pyridin-3-yl)-4-methylbenzenesulfonamide] | 7.00 to 9.00 | > 9.30 |  | 
14 | CN1C(=O)C2(CCC2)c2c1cnc1ccc(-c3cnc(OCC(O)CN4CCCCC4)c(NS(C)(=O)=O)c3)cc21 (stereo not shown) [Example 287, N-(2-(2-Hydroxy-3-(piperidin-1-yl)propoxy)-5-(3′-methyl-2′-oxo-2′,3′-dihydrospiro[cyclobutane-1,1′-pyrrolo[2,3-c]quinolin]-8′-yl)pyridin-3-yl)methanesulfonamide] | 7.00 to 9.00 | > 9.30 |  | 
15 | CC(C)NCCOc1ncc(-c2cc3c4c(cnc3cc2F)N(C)C(=O)C42CN(c3cccc(F)c3)C2)cc1NS(C)(=O)=O [Example 539, N-(5-(7′-Fluoro-1-(3-fluorophenyl)-3′-methyl-2′-oxo-2′,3′-dihydrospiro[azetidine-3,1′-pyrrolo[2,3-c]quinolin]-8′-yl)-2-(2-(isopropylamino)ethoxy)pyridin-3-yl)methanesulfonamide] |  |  | 7.00 to 9.00 | > 9.30
16 | COc1ncc(-c2ccc3ncc4c(c3c2)C2(CC2)C(=O)N4C)cc1NS(=O)(=O)c1cccc(Cl)c1 [Example 9, 3-Chloro-N-(2-methoxy-5-(3′-methyl-2′-oxo-2′,3′-dihydrospiro [cyclopropane-1,1′-pyrrolo[2,3-c]quinolin]-8′-yl)pyridin-3-yl)benzenesulfonamide] | 7.00 to 9.00 | > 9.30 |  | 
17 | CN1C(=O)C2(CCC2)c2c1cnc1ccc(-c3cnc(OCCCN4CCCC4)c(NS(=O)(=O)C4CC4)c3)cc21 [Example 235, N-(5-(3′-Methyl-2′-oxo-2′,3′-dihydrospiro[cyclobutane-1,1′-pyrrolo[2,3-c]quinolin]-8′-yl)-2-(3-(pyrrolidin-1-yl)propoxy)pyridin-3-yl)cyclopropanesulfonamide] | 7.00 to 9.00 | 7.00 to 9.00 |  | 
18 | COCCS(=O)(=O)Nc1cc(-c2ccc3ncc4c(c3c2)C2(CC2)C(=O)N4C)cnc1OCCCN(C)C [Example 83, N-(2-(3-(Dimethylamino)propoxy)-5-(3′-methyl-2′-oxo-2′,3′-dihydrospiro [cyclopropane-1,1′-pyrrolo[2,3-c]quinolin]-8′-yl)pyridin-3-yl)-2-methoxyethane-1-sulfonamide] | > 9.30 | 7.00 to 9.00 |  | 
19 | CNCCCCOc1ncc(-c2ccc3ncc4c(c3c2)C2(CC2)C(=O)N4C)cc1NS(=O)(=O)c1ccccc1 [Example 75, N-(5-(3-Methyl-2′-oxo-2′,3′-dihydrospiro [cyclopropane-1,1′-pyrrolo[2,3-c]quinolin]-8′-yl)-2-(4-(methylamino)butoxy)pyridin-3-yl) benzenesulfonamide] | 7.00 to 9.00 | 7.00 to 9.00 |  | 
20 | CCc1ccc(N2CC3(C2)C(=O)N(C)c2cnc4cc(F)c(-c5cnc(OCCNC(C)C)c(NS(C)(=O)=O)c5)cc4c23)cc1 [Example 529, N-(5-(1-(4-Ethylphenyl)-7′-fluoro-3′-methyl-2′-oxo-2′,3′-dihydrospiro[azetidine-3,1′-pyrrolo[2,3-c]quinolin]-8′-yl)-2-(2-(isopropylamino)ethoxy)pyridin-3-yl)methanesulfonamide] |  |  | 7.00 to 9.00 | 7.00 to 9.00
21 | CN1CCN(c2ncc(-c3ccc4ncc5c(c4c3)C3(CCC3)C(=O)N5C)cc2NS(C)(=O)=O)CC1 [Example 229, N-(5-(3′-Methyl-2′-oxo-2′,3′-dihydrospiro[cyclobutane-1,1′-pyrrolo[2,3-c]quinolin]-8′-yl)-2-(4-methylpiperazin-1-yl)pyridin-3-yl)methanesulfonamide] | 9.00 to 9.30 | > 9.30 |  | 
22 | CCN(C)C1CN(c2ncc(-c3ccc4ncc5c(c4c3)C3(CCC3)C(=O)N5C)cc2NS(C)(=O)=O)C1 [Example 326, N-(2-(3-(Ethyl(methyl)amino)azetidin-1-yl)-5-(3′-methyl-2′-oxo-2′,3′-dihydrospiro[cyclobutane-1,1′-pyrrolo[2,3-c]quinolin]-8′-yl)pyridin-3-yl)methanesulfonamide hydrochloride] | 7.00 to 9.00 | 9.00 to 9.30 |  | 
23 | CN(C)CCCOc1ncc(-c2ccc3ncc4c(c3c2)C2(CCC2)C(=O)N4C)cc1NS(=O)(=O)c1cc(Cl)cc(Cl)c1 [Example 157, 3,5-Dichloro-N-(2-(3-(dimethylamino)propoxy)-5-(3′-methyl-2′-oxo-2′,3′-dihydrospiro [cyclobutane-1,1′-pyrrolo[2,3-c]quinolin]-8′-yl)pyridin-3-yl) benzenesulfonamide hydrochloride] | 7.00 to 9.00 | 7.00 to 9.00 |  | 
